In PMC7504216 (Molecules, 2020):
Where two headings read alike, the source gives them in different places.

What was measured:
AChE = conditions: cited from earlier work
recombinant human MAO-A = target: T1, recombinant human MAO-A (Homo sapiens, UniProt P21397); assay: biochemical; type: biochemical; conditions: for remaining activity at 10 µM: read-out: Residual Activity at 10 µM (%) MAO-A
T1 construct: purchased Sigma-Aldrich
T1 sequence (P21397 1-527): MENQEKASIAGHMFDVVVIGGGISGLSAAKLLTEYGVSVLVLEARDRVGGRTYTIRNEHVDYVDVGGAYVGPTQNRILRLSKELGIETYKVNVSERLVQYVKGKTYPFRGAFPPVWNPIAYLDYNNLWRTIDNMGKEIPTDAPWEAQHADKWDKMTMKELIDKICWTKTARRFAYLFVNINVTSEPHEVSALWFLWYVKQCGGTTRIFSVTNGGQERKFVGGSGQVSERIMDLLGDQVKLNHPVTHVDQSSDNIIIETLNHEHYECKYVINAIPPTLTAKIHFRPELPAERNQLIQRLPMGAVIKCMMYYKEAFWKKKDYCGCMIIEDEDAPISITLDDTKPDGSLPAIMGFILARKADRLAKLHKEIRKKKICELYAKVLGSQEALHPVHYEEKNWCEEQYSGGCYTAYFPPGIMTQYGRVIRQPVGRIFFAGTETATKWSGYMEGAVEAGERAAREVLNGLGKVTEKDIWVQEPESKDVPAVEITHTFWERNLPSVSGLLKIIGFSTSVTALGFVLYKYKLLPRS

recombinant human MAO-B [1] = target: T2, recombinant human MAO-B (Homo sapiens, UniProt P27338); assay: biochemical; type: biochemical; conditions: for remaining activity at 10 µM: read-out: Residual Activity at 10 µM (%) MAO-B
T2 construct: purchased Sigma-Aldrich
T2 sequence (P27338 1-520): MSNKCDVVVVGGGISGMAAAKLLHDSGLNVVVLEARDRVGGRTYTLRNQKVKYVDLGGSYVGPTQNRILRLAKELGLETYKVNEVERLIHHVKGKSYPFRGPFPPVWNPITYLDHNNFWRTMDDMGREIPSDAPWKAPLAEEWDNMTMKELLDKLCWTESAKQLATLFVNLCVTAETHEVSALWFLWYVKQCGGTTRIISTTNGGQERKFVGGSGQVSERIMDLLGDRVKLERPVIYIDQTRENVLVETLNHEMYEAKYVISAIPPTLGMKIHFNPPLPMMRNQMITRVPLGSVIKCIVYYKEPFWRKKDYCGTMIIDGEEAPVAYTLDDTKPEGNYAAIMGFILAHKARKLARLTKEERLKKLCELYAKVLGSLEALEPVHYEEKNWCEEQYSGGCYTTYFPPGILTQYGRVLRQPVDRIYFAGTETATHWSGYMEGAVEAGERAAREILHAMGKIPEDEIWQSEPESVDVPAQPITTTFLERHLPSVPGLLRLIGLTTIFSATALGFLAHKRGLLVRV

[2] = target: T3, AChE from Electrophorus electricus (Electrophorus electricus, UniProt O42275); assay: AChE inhibition assay (Ellman, ATCI); type: biochemical; conditions: for Residual Activity at 10 µM (%) AChE: inhibitor 10 µM, mean ± SE, triplicate; for remaining activity at 10 µM: read-out: Residual Activity at 10 µM (%) AChE
T3 construct: purchased Sigma-Aldrich
T3 sequence (O42275 24-633): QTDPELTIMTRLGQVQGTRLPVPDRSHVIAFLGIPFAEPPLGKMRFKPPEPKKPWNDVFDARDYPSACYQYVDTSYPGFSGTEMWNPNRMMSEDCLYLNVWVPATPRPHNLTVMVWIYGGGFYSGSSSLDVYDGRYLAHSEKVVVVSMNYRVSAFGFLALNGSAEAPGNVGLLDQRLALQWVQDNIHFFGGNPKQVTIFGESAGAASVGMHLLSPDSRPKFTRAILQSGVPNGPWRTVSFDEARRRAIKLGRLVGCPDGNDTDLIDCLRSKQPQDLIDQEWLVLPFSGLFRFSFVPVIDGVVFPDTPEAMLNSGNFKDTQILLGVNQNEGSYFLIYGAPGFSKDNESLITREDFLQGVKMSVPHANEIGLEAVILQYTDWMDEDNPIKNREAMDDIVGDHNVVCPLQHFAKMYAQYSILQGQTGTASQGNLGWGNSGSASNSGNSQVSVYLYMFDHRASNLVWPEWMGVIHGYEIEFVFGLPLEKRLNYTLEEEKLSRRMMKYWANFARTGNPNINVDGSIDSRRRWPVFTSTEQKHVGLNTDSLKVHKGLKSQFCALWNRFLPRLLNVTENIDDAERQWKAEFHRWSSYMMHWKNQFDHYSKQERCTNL

BChE from equine serum [3] = target: T4, BChE from equine serum (Equus caballus, UniProt P81908); assay: BChE inhibition assay (Ellman, BTCI) and kinetics; type: biochemical; conditions: for Residual Activity at 10 µM (%) BChE: inhibitor 10 µM, mean ± SE, triplicate; for remaining activity at 10 µM: read-out: Residual Activity at 10 µM (%) BChE
T4 construct: BChE from equine serum; purchased Sigma-Aldrich; host or cells: equine serum
T4 sequence (P81908 whole entry): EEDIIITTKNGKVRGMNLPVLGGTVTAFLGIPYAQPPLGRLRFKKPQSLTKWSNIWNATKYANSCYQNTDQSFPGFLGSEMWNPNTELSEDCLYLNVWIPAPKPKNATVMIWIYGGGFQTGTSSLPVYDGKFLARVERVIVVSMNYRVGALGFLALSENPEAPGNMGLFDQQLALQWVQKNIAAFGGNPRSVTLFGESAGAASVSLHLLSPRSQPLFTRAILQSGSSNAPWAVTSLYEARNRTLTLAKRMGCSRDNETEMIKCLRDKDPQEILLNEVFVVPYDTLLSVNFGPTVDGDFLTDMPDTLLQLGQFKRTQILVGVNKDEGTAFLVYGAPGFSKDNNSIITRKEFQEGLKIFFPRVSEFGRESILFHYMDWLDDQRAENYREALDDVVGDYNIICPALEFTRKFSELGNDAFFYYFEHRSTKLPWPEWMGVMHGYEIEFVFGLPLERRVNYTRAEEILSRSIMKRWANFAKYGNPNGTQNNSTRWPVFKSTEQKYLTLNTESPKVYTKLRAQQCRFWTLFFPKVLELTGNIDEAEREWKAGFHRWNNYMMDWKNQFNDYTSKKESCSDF

BChE = conditions: cited from earlier work; for BChE inhibition: 25 μg/mL (sphondin 115.7 μM, pimpinellin 101.5 μM), from Heracleum platytaenium
MAO-B = test system: MAO-B; parameters: method as in PMID 28634060; conditions: cited from earlier work
recombinant human MAO-B [4] = target: T2, recombinant human MAO-B; assay: Reversibility of MAO-B inhibition by dialysis; type: biochemical
BChE from equine serum [5] = target: T4, BChE from equine serum; assay: Reversibility of BChE inhibition by dialysis; type: biochemical
BChE from equine serum [6] = target: T4, BChE from equine serum; assay: Reversibility of BChE inhibition by dilution method; type: biochemical
[7] = inhibitor 10 µM, mean ± SE, triplicate

CC(C)=CCc1c(O)ccc2ccc(=O)oc12 [osthenol]
IC50 (AChE; from Angelica pubescens): 25.3 µM

isoliquiritin apioside
Residual Activity at 10 µM (%) MAO-A (recombinant human MAO-A; [7]): 86.6 ± 3.27% | Residual Activity at 10 µM (%) MAO-B (recombinant human MAO-B [1]; [7]): 80.3 ± 5.57% | Residual Activity at 10 µM (%) AChE [2]: 93.5 ± 3.07% | Residual Activity at 10 µM (%) BChE (BChE from equine serum [3]): 95.6 ± 0.88%

hyuganin C
IC50 (BChE): 38.9 µM

CCC(C)C(=O)c1c(O)c2c(c3c(-c4ccccc4)cc(=O)oc13)OC(C)(CCC=C(C)C)C=C2 (stereo not shown) [mesuagenin B]
IC50 (AChE; from Mesua elegans): 0.7 µM

CC1(C)[C@@H](O[C@H]2O[C@H](C(=O)O)[C@@H](O)[C@H](O)[C@H]2O[C@@H]2O[C@H](C(=O)O)[C@@H](O)[C@H](O)[C@H]2O)CC[C@]2(C)[C@H]3C(=O)C=C4[C@@H]5C[C@@](C)(C(=O)O)CC[C@]5(C)CC[C@@]4(C)[C@]3(C)CC[C@@H]12 [Glycyrrhizin, glycyrrhizin]
IC50 (recombinant human MAO-A): > 40 µM | remaining activity at 10 µM (recombinant human MAO-A; [7]): 95.8 ± 3.3% | IC50 (recombinant human MAO-B [1]): > 40 µM | remaining activity at 10 µM (recombinant human MAO-B [1]; [7]): 93.1 ± 4.32% | remaining activity at 10 µM [2]: 97.7 ± 2.14% | remaining activity at 10 µM (BChE from equine serum [3]): 82.3 ± 7.95%

COc1ccc(-c2cc(=O)c3c(O)cc(O)cc3o2)cc1 [acacetin]
IC50 (MAO-B): 0.17 µM

CC1(C)[C@@H](O)CC[C@]2(C)[C@H]3C(=O)C=C4[C@@H]5C[C@@](C)(C(=O)O)CC[C@]5(C)CC[C@@]4(C)[C@]3(C)CC[C@@H]12 [Glycyrrhetinic acid, glycyrrhetinic acid]
IC50 (recombinant human MAO-A): > 40 µM | remaining activity at 10 µM (recombinant human MAO-A; [7]): 96.3 ± 2.64% | IC50 (recombinant human MAO-B [1]): > 40 µM | remaining activity at 10 µM (recombinant human MAO-B [1]; [7]): 84 ± 2.16% | remaining activity at 10 µM [2]: 97.3 ± 1.61% | remaining activity at 10 µM (BChE from equine serum [3]): 95 ± 4.12%

COc1cc2ccc(=O)oc2cc1O [scopoletin]
IC50 (BChE): 9.11 µM

O=C1C[C@@H](c2ccc(O)cc2)Oc2cc(O)ccc21 [LG, Liquiritigenin]
IC50 (recombinant human MAO-A): 0.27 ± 0.041 µM | remaining activity at 10 µM (recombinant human MAO-A): 0.46 ± 1.6% | mode of MAO-B inhibition (recombinant human MAO-B [1]; Lineweaver-Burk plots): reversible competitive inhibitor | remaining activity at 10 µM (recombinant human MAO-B [1]): 0% | IC50 [2]: > 40 µM | remaining activity at 10 µM [2]: 95.3 ± 3.59% | IC50 (BChE from equine serum [3]): > 40 µM | remaining activity at 10 µM (BChE from equine serum [3]): 82.5 ± 0.26% | reversibility of MAO-B inhibition (recombinant human MAO-B [4]): reversibly inhibited

COc1c2occc2cc2ccc(=O)oc12 [xanthotoxin]
IC50 (AChE; from Ferula lutea): 0.76 µM

COc1c(OC)c2occc2c2oc(=O)ccc12 [pimpinellin]
BChE inhibition (BChE): 78.02%

tannic acid
IC50 (AChE): 0.087 µM

COc1cc2ccc(=O)oc2c2ccoc12 [sphondin]
BChE inhibition (BChE): 63.69%

liquiritin apioside
Residual Activity at 10 µM (%) MAO-A (recombinant human MAO-A; [7]): 86.9 ± 2.41% | Residual Activity at 10 µM (%) MAO-B (recombinant human MAO-B [1]; [7]): 94.8 ± 0.57% | Residual Activity at 10 µM (%) AChE [2]: 63.5 ± 2.56% | Residual Activity at 10 µM (%) BChE (BChE from equine serum [3]): 97.6 ± 0.93%

O=C(/C=C/c1ccc(O[C@@H]2O[C@H](CO)[C@@H](O)[C@H](O)[C@H]2O)cc1)c1ccc(O)cc1O [Isoliquiritin, isoliquiritin]
IC50 (recombinant human MAO-A): > 40 µM | remaining activity at 10 µM (recombinant human MAO-A): 81.8 ± 1.61% | IC50 (recombinant human MAO-B [1]): > 40 µM | remaining activity at 10 µM (recombinant human MAO-B [1]): 75.4 ± 2.27% | IC50 [2]: > 40 µM | remaining activity at 10 µM [2]: 69.9 ± 2.2% | IC50 (BChE from equine serum [3]): > 40 µM | remaining activity at 10 µM (BChE from equine serum [3]): 91.9 ± 7.16%

Cc1cc2c(cc(=O)c1O)[C@@]1(CO)CCCC(C)(C)[C@@H]1CC2 [isograndifoliol]
IC50 (BChE): 0.9 µM

COc1ccc(CCCc2ccc(O)cc2)c(O)c1 [broussonin A]
IC50 (BChE): 7.5 µM

CC(=O)O[C@@H]1CCC(C)(C)c2ccc3c(c21)C(=O)C(=O)C1=C3OC[C@@H]1C [(1R,15R)-1-acetoxycryptotanshinone]
IC50 (BChE): 2.4 µM

cremaphenanthrene F
IC50 (BChE): 14.6 µM

CC(C)=CCC[C@]1(C)[C@@H](CC=C(C)C)C[C@@]2(CC=C(C)C)C(=O)[C@]1(C(=O)C(C)C)C(=O)C(CC=C(C)C)=C2O [hyperforin]
IC50 (BChE): 142 µM

COc1c(CC=C(C)C)c(O)cc2oc(=O)c3c4ccc(O)cc4oc3c12 [GC, glycyrol]
IC50 (recombinant human MAO-A): > 40 µM | remaining activity at 10 µM (recombinant human MAO-A): 70.5 ± 1.61% | IC50 (recombinant human MAO-B [1]): 29.5 ± 0.67 µM | remaining activity at 10 µM (recombinant human MAO-B [1]): 74.2 ± 3.46% | IC50 [2]: 14.8 ± 0.19 µM | remaining activity at 10 µM [2]: 46.1 ± 4.4% | IC50 (BChE from equine serum [3]): 7.22 ± 0.37 µM | Ki (BChE from equine serum [3]): 4.47 µM | selectivity index (SI) for BChE with respect to AChE (BChE from equine serum [3]): 2.0 | mode of BChE inhibition (BChE from equine serum [3]; Lineweaver-Burk plots): reversible, noncompetitive inhibitor | remaining activity at 10 µM (BChE from equine serum [3]): 44.6 ± 5.36% | Residual BChE activity, undialyzed (AU) (BChE from equine serum [5]; 2 × IC50 (GC […]; tacrine 0.03 µM), 30 min preincubation): 34.6% | Residual BChE activity, dialyzed (AD) (BChE from equine serum [5]; 2 × IC50 (GC […]; tacrine 0.03 µM), 6 h dialysis): 58.4% | reversibility of BChE inhibition (BChE from equine serum [5]; dialysis and dilution methods): reversible inhibitor | residual BChE activity, preincubated at 50 × IC50 then diluted to 1 × IC50 (BChE from equine serum [6]; 15 min preincubation, after dilution): 40.1% | residual BChE activity, control at 1 × IC50 (before dilution) (BChE from equine serum [6]; GC at 1 × IC50): 51.1% | residual BChE activity at 50 × IC50 (BChE from equine serum [6]; GC at 50 × IC50): 10.3%

O=C1C[C@@H](c2ccc(O[C@@H]3O[C@H](CO)[C@@H](O)[C@H](O)[C@H]3O)cc2)Oc2cc(O)ccc21 [Liquiritin, liquiritin]
IC50 (recombinant human MAO-A): > 40 µM | remaining activity at 10 µM (recombinant human MAO-A): 93.5% | IC50 (recombinant human MAO-B [1]): > 40 µM | remaining activity at 10 µM (recombinant human MAO-B [1]): 90.2 ± 0.56% | IC50 [2]: > 40 µM | remaining activity at 10 µM [2]: 93.5 ± 5.12% | IC50 (BChE from equine serum [3]): > 40 µM | remaining activity at 10 µM (BChE from equine serum [3]): 95.5 ± 4.67%

sagachromanol I
IC50 (BChE): 10.8 µM

COc1cc2c(cc1O)C[C@H]1c3c(cc(O)c(OC)c3-2)CCN1C [boldine]
IC50 (BChE): 321 µM

COc1ccc([C@@H]2CC(=O)c3c(O)cc(O[C@@H]4O[C@H](CO[C@@H]5O[C@@H](C)[C@H](O)[C@@H](O)[C@H]5O)[C@@H](O)[C@H](O)[C@H]4O)cc3O2)cc1O [hesperidin]
IC50 (AChE): 0.00345 µM
